Measured values from PubChem BioAssay (NCI).
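Results reflect a 48-hour exposure of cells in 96-well plates to compound at five concentrations. GI50 = concentration required for 50% inhibition of growth. Definition used: TGI = concentration required for complete inhibition of growth.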

Columns and labels:
Assay in all cases: growth of human tumour cells (NCI), 48 h
HOP-62 NSCLC = system: HOP-62 NSCLC
OVCAR-3 ovarian = system: OVCAR-3 ovarian
SK-MEL-28 melanoma = system: SK-MEL-28 melanoma
MDA-MB-435 = system: MDA-MB-435
SF-295 CNS = system: SF-295 CNS
OVCAR-8 ovarian = system: OVCAR-8 ovarian
CAKI-1 renal = system: CAKI-1 renal
K-562 leukemia = system: K-562 leukemia
NCI/ADR-RES ovarian = system: NCI/ADR-RES ovarian
SR leukemia = system: SR leukemia

Row | Compound | GI50 (HOP-62 NSCLC) [µM] | TGI (HOP-62 NSCLC) [µM] | GI50 (OVCAR-3 ovarian) [µM] | TGI (OVCAR-3 ovarian) [µM] | GI50 (SK-MEL-28 melanoma) [µM] | TGI (SK-MEL-28 melanoma) [µM] | GI50 (MDA-MB-435) [µM] | TGI (MDA-MB-435) [µM] | GI50 (SF-295 CNS) [µM] | TGI (SF-295 CNS) [µM] | GI50 (OVCAR-8 ovarian) [µM] | TGI (OVCAR-8 ovarian) [µM] | GI50 (CAKI-1 renal) [µM] | TGI (CAKI-1 renal) [µM] | GI50 (K-562 leukemia) [µM] | TGI (K-562 leukemia) [µM] | TGI (NCI/ADR-RES ovarian) [µM] | TGI (SR leukemia) [µM] | GI50 (NCI/ADR-RES ovarian) [µM]
1 | CC1SC2(CCCCC2)N(NC(=O)c2[nH]c3ccc(F)cc3c2-c2ccccc2)C1=O (stereo unspecified) | 19.7 | 60.9 | 25.2 | > 100 | > 100 | > 100 | > 100 | > 100 | 35.8 | > 100 | 23.1 | 63.5 | > 100 | > 100 | 35.4 | > 100 |  |  | 
2 | CN1c2ccccc2C(=O)Nc2cnc(Cl)nc21 |  | > 100 |  | > 100 |  | > 100 |  | > 100 |  | > 100 |  | > 100 |  | > 100 |  | > 100 | > 100 |  | 
3 | CCC1NCC(=O)c2c1[nH]c1ccccc21 (stereo unspecified) |  |  |  | > 100 |  | > 100 |  |  |  | > 100 |  | > 100 |  | > 100 |  | > 100 |  | > 100 | 
4 | Nc1ncnc2c1ncn2Cc1ccc(C23CC4CC(CC(C4)C2)C3)c(O)c1 | 9.06 | 34.6 | 17.2 | > 100 | 18.9 | > 100 | 15 | > 100 | 18.3 | > 100 | 17.5 | > 100 | 8.14 | 37.5 |  |  | > 100 |  | > 100
5 | C/C(=N\NC(=S)N1CCC(C2CCN(C(=S)N/N=C(\C)c3ccccn3)CC2)CC1)c1ccccn1 |  | > 100 |  | > 100 |  | > 100 |  |  |  | > 100 |  | > 100 |  | > 100 |  | > 100 |  |  | 
6 | Cc1cccc(N2C(=O)/C(=C/c3ccc(N(CCC#N)CCC#N)cc3C)N=C2c2cc([N+](=O)[O-])ccc2Cl)c1 |  | > 100 |  | > 100 |  | > 100 |  |  |  | > 100 |  | > 100 |  | > 100 |  | > 100 |  | > 100 | 
7 | O=C1/C(=C/c2ccccc2)CN(C(=O)OCC(Cl)(Cl)Cl)C/C1=C\c1ccccc1 |  |  |  |  |  | 3.25 |  |  |  | 3.92 |  | 3.78 |  |  |  | 5.91 |  | 6.23 | 
8 | O=[N+]([O-])O.[NH-]C1CCCCC1[NH-].[NH-]C1CCCCC1[NH-].[NH-]C1CCCCC1[NH-].[OH-].[OH-].[OH-].[Pt+4].[Pt+4].[Pt+4] (stereo unspecified) | 2.23 | > 57.8 | 2.16 | > 68.1 | 1.43 | 43.2 | 0.367 | 6.3 | 0.971 | > 66.8 | 0.382 | > 74.1 | 0.222 | 9.33 | 0.452 | > 100 | > 59.3 |  | 1.15
9 | CCOC(=O)NNC(=O)NC12CC3CC(CC(C3)C1)C2 |  | > 100 |  | > 100 |  | > 100 |  |  |  | > 100 |  | > 100 |  | > 100 |  | > 100 |  |  | 
10 | O=C(CC(C(=O)O)N1CCOCC1)c1ccccc1 (stereo unspecified) |  | 86.9 |  | 35.7 |  | 36.6 |  |  |  | > 100 |  | 94.8 |  |  |  | 49.1 | > 100 | 35.5 | 
